From ChEMBL document CHEMBL1201862, “PubChem BioAssay data set” (2004)
The source made the active and inactive calls.

Legend:
[1] = molecular target: Non-receptor tyrosine-protein kinase TYK2 (Homo sapiens, UniProt P29597); assay type: functional
[2] = molecular target: RAC-gamma serine/threonine-protein kinase (Homo sapiens, UniProt Q9Y243); assay type: functional
[3] = molecular target: Receptor tyrosine-protein kinase erbB-4 (Homo sapiens, UniProt Q15303); assay type: functional;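 also: ERBB4 member of a kinome-wide kinase profiling panel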
[4] = molecular target: Cyclin-dependent kinase 1 (Homo sapiens, UniProt P06493); assay type: functional;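 also: Kinome-wide panel profiling, with the target listed as panel member CDC2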
[5] = molecular target: Fibroblast growth factor receptor 3 (Homo sapiens, UniProt P22607); assay type: functional
[6] = molecular target: Eukaryotic elongation factor 2 kinase (Homo sapiens, UniProt O00418); assay type: functional
[7] = molecular target: Serine/threonine-protein kinase pim-2 (Homo sapiens, UniProt Q9P1W9); assay type: functional;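 also: value comes from a broad kinase panel profiling study in which PIM2 was one of the panel members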
[8] = molecular target: Calcium/calmodulin-dependent protein kinase type II subunit gamma (Homo sapiens, UniProt Q13555); assay type: functional
[9] = molecular target: Cyclin-dependent kinase 5 (Homo sapiens, UniProt Q00535); assay type: functional;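 also: CDK5 measured as one member of a kinase profiling panel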
[10] = molecular target: MAP kinase-activated protein kinase 5 (Homo sapiens, UniProt Q8IW41); assay type: functional;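 also: measured as one member of a kinome panel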
[11] = molecular target: Tyrosine-protein kinase JAK3 (Homo sapiens, UniProt P52333); assay type: functional
[12] = molecular target: Mitogen-activated protein kinase kinase kinase kinase 2 (Homo sapiens, UniProt Q12851); assay type: functional;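 also: measured as one member of a kinome-wide kinase panel, with MAP4K2 as the panel entry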
[13] = molecular target: Dual specificity tyrosine-phosphorylation-regulated kinase 1A (Homo sapiens, UniProt Q13627); assay type: functional;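 also: measured against DYRK1A as one member of a broad kinome profiling panel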
[14] = molecular target: Mitogen-activated protein kinase 12 (Homo sapiens, UniProt P53778); assay type: functional;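 also: measured as one member of a kinome-wide kinase profiling panel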
[15] = molecular target: Maternal embryonic leucine zipper kinase (Homo sapiens, UniProt Q14680); assay type: functional
[16] = molecular target: 5'-AMP-activated protein kinase catalytic subunit alpha-1 (Homo sapiens, UniProt Q13131); assay type: functional
[17] = molecular target: Tyrosine-protein kinase Srms (Homo sapiens, UniProt Q9H3Y6); assay type: functional;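 also: SRMS measured as one member of a kinome-wide kinase profiling panel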
[18] = Luminescence Cell-Based Dose Confirmation HTS to Identify Activators of 5'UTR Stem-Loop Driven Alpha-Synuclein mRNA Translation in H4 Neuroglioblastoma Cells. [Related pubchem assays: 1829 (Project Summary), 1814 (Primary HTS)]; assay type: functional
Streptococcus = experiment: GAS UMAA2166 growth inhibition – luminescence, BacTiterGlo, counter-screen for streptokinase expression inhibitor project, dose response (AID 1915); assay type: functional, organism-based;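 also: potency for reduction of bacterial viability or growth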
[19] = Counterscreen for activators of the function of SWI/SNF related, matrix associated, actin dependent regulator of chromatin, subfamily a, member 2 (SMARCA2, BRM): Luminescence-based cell-based high throughput dose response assay to identify non-selective compounds using the VP16 reporter assay.; assay type: functional
[20] = molecular target: Eukaryotic translation initiation factor 4E (Mus musculus, UniProt P63073); experiment: blockers of eIF4G binding by eIF4E – biochemical, TR-FRET, dose response (AID 855); assay type: functional;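 also: potency for disrupting eIF4E binding to eIF4GI seen as loss of FRET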
H4 = experiment: Luminescence Cell-Based Dose Response HTS to Identify Activators of 5'UTR Stem-Loop Driven Prion Protein mRNA Translation in H4 Neuroglioblastoma Cells. [Related pubchem assays: 1829 (Project Summary), 1814 (Primary HTS)]; assay type: functional; conditions: Homo sapiens
Streptokinase A = molecular target: T1, Streptokinase A (Streptococcus pyogenes serotype M1, UniProt P10520); experiment: viability-normalized secreted streptokinase activity reduction – plasminogen activation absorbance, OD405, dose response (AID 1914); assay type: functional, Streptococcus pyogenes M1 GAS;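 also: secreted streptokinase activity via plasminogen activation per viability signal from cell pellet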
T1 sequence (P10520 whole entry): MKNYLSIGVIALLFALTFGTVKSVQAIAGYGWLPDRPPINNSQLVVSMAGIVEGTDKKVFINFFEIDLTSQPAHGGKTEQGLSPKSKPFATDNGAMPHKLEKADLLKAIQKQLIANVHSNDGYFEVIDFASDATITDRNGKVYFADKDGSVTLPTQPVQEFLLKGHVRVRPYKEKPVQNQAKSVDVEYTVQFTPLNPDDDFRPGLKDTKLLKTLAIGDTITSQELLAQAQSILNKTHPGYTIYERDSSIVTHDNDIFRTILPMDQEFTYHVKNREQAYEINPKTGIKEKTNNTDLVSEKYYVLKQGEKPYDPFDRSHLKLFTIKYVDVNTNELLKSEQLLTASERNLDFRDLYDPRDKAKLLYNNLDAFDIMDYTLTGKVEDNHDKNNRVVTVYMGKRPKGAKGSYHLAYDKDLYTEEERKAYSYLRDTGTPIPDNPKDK

Jurkat = experiment: SAR Analysis of small molecule inhibitors of T-cell specific antigen receptor-induced NF-kB activation in a Jurkat cell line using a luminescence assay - Set 2. [Related pubchem assays (depositor defined):AID435003, AID435012, AID465]; assay type: functional, cell-based; conditions: Homo sapiens
[21] = Luminescence-based dose response cell-based high throughput screening assay for cytotoxic compounds using the IEC-6 intestinal epithelial cell line. [Related pubchem assays: 1858 (Summary AID.), 1825 (Counterscreen.), 1907 (Confirmation screen.)]; assay type: functional
[22] = loss of viability in HepG2 cells – cell-based, CellTiter-Glo, cherry-picked, cytotoxicity control for Shn3 inhibitor project, dose response (AID 624134); assay type: functional
[23] = non-specific 3'UTR reporter inhibition in Clone20-Shn3RL – cell-based, Renilla luciferase, cherry-picked, counter-screen for Shn3 inhibitor project, dose response (AID 624133); assay type: functional
[24] = Counterscreen for AddAB inhibitors: absorbance-based bacterial cell-based high throughput dose response assay for inhibitors of bacterial viability. [Related pubchem assays (depositor defined):AID435030, AID449728, AID449731, AID488942, AID488955, AID488956]; assay type: functional
cells = assay type: functional, cell-based
HEK293 = experiment: HEK293T cell viability loss, resazurin readout – resazurin fluorescence, cytotoxicity control for NF-kB activator project, SAR follow-up (AID 493251); assay type: functional, cell-based
HeLa = experiment: viability loss in HeLa cells – cell-based, 24 h, cherry-picked samples, cytotoxicity control, dose response (AID 504726); assay type: functional; conditions: Homo sapiens;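 also: potency for cytotoxicity as loss of luminescence signal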
[25] = molecular target: Bifunctional protein GlmU (Mycobacterium tuberculosis, UniProt P9WMN3); experiment: Inhibitors of Mycobacterial Glucosamine-1-phosphate acetyl transferase (GlmU). Secondary screen.; design: species or system Mycobacterium tuberculosis H37Rv
[26] = NIH-3T3 fibroblast cytotoxicity, dose response, cytotoxicity control, cell-based, fluorescence, Alamar Blue, secondary assay (AID 2327); assay type: functional;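 also: NIH-3T3 mouse fibroblasts cultured with fluconazole at 8 µg/mL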

Chain of Eukaryotic translation initiation factor 4E (P63073 whole entry): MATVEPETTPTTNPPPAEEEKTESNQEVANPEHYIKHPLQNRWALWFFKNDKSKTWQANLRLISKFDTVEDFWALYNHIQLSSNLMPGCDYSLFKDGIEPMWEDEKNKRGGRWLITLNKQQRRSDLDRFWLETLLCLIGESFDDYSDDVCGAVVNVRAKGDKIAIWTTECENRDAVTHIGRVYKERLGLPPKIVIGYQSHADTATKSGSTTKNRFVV
Chain of Non-receptor tyrosine-protein kinase TYK2 (P29597 whole entry): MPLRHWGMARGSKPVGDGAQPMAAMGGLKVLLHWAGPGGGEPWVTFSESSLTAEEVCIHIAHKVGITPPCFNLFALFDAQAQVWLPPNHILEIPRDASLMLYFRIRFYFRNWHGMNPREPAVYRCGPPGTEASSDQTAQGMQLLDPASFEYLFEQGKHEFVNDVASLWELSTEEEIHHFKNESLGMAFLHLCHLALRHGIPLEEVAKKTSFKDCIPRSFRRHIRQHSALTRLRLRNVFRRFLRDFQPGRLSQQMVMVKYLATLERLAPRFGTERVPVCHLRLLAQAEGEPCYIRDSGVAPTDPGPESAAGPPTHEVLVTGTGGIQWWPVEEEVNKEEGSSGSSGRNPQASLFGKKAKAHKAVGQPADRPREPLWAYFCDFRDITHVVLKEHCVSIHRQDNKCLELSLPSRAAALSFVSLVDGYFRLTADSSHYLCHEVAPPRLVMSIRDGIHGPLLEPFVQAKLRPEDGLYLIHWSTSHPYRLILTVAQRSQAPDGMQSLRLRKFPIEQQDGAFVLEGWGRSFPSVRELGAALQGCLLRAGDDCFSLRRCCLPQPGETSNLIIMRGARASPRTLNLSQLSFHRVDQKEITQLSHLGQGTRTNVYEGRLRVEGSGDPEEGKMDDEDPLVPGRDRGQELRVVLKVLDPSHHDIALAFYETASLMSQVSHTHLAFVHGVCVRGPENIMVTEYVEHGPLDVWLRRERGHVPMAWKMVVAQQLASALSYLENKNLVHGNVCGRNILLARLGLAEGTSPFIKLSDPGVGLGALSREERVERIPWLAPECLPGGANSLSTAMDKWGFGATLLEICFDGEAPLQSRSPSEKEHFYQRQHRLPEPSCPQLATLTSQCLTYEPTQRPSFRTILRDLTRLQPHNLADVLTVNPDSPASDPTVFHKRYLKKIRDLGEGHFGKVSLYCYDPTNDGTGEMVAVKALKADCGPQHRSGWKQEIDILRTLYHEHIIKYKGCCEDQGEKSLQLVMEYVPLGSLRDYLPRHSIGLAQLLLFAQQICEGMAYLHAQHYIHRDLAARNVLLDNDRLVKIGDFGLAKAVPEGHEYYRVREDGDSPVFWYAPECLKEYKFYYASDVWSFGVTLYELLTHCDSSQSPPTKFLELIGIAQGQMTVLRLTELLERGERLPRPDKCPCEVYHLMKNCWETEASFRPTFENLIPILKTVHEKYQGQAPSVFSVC
Chain of MAP kinase-activated protein kinase 5 (Q8IW41 whole entry): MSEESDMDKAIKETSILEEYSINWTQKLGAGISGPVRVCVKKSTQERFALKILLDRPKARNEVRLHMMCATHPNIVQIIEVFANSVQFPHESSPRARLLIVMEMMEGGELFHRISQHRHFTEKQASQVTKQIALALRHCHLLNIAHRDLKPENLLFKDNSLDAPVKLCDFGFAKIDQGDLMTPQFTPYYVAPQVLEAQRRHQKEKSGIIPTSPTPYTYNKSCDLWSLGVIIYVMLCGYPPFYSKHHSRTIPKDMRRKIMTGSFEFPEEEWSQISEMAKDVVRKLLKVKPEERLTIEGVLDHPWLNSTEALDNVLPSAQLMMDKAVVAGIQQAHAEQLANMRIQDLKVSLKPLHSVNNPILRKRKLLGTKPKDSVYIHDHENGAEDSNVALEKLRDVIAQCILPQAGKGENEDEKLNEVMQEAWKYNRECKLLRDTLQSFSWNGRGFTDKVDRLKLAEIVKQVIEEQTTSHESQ
Chain of Calcium/calmodulin-dependent protein kinase type II subunit gamma (Q13555 whole entry): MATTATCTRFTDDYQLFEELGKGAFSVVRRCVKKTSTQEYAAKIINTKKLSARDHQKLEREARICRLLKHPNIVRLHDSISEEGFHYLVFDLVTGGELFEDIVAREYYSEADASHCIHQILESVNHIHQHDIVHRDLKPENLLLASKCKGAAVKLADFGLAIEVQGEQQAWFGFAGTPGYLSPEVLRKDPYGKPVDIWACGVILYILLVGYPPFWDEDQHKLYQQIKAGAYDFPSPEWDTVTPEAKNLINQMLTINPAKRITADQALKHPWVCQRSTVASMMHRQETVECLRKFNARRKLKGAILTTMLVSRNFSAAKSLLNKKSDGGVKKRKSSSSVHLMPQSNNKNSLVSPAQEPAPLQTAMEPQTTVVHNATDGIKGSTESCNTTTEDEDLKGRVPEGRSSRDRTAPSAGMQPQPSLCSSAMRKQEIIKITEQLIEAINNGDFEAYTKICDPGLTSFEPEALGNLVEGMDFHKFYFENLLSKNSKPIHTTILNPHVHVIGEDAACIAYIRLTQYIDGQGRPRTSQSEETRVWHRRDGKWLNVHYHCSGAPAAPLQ
Chain of Serine/threonine-protein kinase pim-2 (Q9P1W9 whole entry): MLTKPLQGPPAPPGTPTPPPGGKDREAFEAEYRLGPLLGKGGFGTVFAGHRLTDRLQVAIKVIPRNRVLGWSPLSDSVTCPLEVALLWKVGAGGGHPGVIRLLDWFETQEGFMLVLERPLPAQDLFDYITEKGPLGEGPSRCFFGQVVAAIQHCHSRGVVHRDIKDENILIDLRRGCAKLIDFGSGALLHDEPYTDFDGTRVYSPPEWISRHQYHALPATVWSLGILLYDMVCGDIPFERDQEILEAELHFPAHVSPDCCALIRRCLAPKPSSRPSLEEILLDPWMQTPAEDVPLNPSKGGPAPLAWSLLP
Chain of Tyrosine-protein kinase JAK3 (P52333 whole entry): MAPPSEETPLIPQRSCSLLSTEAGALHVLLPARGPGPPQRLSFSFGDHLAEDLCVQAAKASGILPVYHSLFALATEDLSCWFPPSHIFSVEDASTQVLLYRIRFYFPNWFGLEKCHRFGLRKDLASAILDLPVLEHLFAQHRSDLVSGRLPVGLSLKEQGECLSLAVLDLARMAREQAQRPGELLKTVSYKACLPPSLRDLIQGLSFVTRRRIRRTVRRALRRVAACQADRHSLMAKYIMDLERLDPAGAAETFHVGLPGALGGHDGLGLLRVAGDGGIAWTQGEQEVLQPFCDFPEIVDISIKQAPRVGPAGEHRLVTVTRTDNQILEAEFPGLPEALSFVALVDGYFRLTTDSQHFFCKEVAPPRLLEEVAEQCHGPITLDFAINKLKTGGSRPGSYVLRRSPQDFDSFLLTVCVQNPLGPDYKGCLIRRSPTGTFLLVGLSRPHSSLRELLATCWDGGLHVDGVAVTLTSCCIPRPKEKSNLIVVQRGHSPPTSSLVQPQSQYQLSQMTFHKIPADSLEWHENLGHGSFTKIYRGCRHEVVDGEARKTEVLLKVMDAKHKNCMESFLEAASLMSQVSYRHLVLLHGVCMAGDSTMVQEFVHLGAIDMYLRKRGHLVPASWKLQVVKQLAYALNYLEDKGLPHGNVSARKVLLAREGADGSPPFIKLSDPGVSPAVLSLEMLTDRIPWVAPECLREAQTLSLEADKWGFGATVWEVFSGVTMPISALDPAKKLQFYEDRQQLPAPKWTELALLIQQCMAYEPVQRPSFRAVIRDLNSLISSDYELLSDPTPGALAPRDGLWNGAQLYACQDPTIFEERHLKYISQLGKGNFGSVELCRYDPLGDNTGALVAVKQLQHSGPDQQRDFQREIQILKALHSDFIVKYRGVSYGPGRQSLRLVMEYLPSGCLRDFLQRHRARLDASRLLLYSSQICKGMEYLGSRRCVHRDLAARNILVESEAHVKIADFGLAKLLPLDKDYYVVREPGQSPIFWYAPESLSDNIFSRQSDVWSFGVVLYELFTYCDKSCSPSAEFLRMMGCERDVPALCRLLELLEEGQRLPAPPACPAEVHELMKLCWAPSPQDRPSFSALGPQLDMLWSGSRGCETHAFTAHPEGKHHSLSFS
Chain of Mitogen-activated protein kinase 12 (P53778 whole entry): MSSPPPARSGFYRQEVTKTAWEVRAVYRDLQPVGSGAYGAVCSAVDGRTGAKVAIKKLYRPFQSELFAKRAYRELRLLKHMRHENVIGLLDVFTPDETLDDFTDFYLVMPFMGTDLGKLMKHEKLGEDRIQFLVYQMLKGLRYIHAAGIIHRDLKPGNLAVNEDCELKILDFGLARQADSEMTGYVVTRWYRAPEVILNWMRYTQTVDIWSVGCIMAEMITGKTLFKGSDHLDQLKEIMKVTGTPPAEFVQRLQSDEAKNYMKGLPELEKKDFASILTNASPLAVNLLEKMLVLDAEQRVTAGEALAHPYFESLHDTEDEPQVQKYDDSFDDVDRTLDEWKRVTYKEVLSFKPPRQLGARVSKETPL
Chain of Maternal embryonic leucine zipper kinase (Q14680 whole entry): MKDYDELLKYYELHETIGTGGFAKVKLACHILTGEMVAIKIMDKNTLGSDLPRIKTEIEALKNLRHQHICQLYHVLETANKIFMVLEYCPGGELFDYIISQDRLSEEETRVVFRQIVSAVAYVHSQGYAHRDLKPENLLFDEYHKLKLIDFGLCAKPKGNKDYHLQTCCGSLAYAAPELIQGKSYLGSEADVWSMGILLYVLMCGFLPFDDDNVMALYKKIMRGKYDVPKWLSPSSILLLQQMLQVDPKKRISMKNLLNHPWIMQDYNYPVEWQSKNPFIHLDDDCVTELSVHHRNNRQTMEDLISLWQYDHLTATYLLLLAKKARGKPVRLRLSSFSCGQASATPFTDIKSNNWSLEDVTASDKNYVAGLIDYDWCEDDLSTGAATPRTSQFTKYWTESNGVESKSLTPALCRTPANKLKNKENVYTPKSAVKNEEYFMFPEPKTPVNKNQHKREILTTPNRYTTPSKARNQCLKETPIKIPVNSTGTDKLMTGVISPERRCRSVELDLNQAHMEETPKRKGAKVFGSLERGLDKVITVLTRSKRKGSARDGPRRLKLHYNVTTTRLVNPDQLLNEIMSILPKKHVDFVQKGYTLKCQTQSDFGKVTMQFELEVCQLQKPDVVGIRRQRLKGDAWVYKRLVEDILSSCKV

Cc1cccc(NC(=O)Nc2ccc3c(c2)CCc2sc4ncnc(N)c4c2-3)c1
Ki [1]: > 2 µM (inactive) | Ki [2]: > 10 µM (inactive) | Ki [3]: > 3.98 µM (inactive) | Ki [4]: > 7.94 µM (inactive) | Ki [5]: > 2 µM (inactive) | Ki [6]: > 3.98 µM (inactive) | Ki [7]: 0.501 µM (active) | Ki [8]: > 6.31 µM (inactive) | Ki [9]: > 10 µM (inactive) | Ki [10]: > 1.58 µM (inactive) | Ki [11]: > 1.58 µM (inactive) | Ki [12]: 2 µM (active) | Ki [13]: 0.316 µM (active) | Ki [14]: > 6.31 µM (inactive) | Ki [15]: 0.794 µM (active) | Ki [16]: 0.398 µM (active) | Ki [17]: > 1.58 µM (inactive)

Cc1ccc(-n2sc3ccccc3c2=O)cc1
EC50 [18]: > 120 µM (not active) | EC50 (Streptococcus): 3.63 µM (active) | EC50 [19]: 51.5 µM (inactive) | IC50 [20]: 15.2 µM (active) | EC50 (H4): 88.2 µM (active) | EC50 (Streptokinase A): > 150 µM (not active)

CCC(=O)NC(c1ccc(C)cc1)c1ccc2cccnc2c1O (stereo not given)
IC50 (Jurkat): 3.26 µM (active) | IC50 [21]: 1.62 µM (active) | AC50 [22]: 1.24 µM (active) | AC50 [23]: 0.383 µM (active) | IC50 [24]: > 119 µM (inactive) | EC50 (cells): > 350 µM (not active) | IC50 (HEK293; Homo sapiens, HEK293): 12.9 µM (active)

N/C(=N\N=C/c1ccc(-c2ccc(O)c(C(=O)O)c2)o1)N[N+](=O)[O-]
AC50 (HeLa): 151 µM (active) | IC50 [25]: 28.4 µM (active) | IC50 [20]: 63.6 µM (inactive)

CC(=O)N(/N=C1\Sc2ccccc2C1=O)c1ccccc1C
EC50 [18]: 2.51 µM (active) | EC50 (H4): 33.4 µM (active)

CCCC(=O)NC(c1ccc(Cl)cc1)c1ccc2cccnc2c1O (stereo not given)
IC50 (Jurkat): 2.84 µM (active) | EC50 (Streptococcus): 30.1 µM (active) | EC50 [26]: 18 µM (active) | AC50 [22]: 1.17 µM (active) | AC50 [23]: 2.72 µM (active) | IC50 [24]: > 119 µM (inactive) | EC50 (cells): > 350 µM (not active) | IC50 (HEK293; Homo sapiens, HEK293): 8.63 µM (active) | IC50 (HEK293; hek293): 9.55 µM (active) | EC50 (Streptokinase A): > 150 µM (not active)
